pEC50: −log10 of the molar value. Read-outs that look alike come from different tables or passages of the source.
Columns and labels:
Format in all cases: cell-based, human
HCT-15 = experiment: 3H thymidine proliferation assay, HCT-15
Summary of the method: (§1)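 EC50 from ^3H-thymidine uptake: 1.0 μCi/well pulse during final 24 h of a 72 h exposure; scintillation count. 1.0×10^4 cells/well, seeded 3 h before 1:3 serial dilutions of unconjugated compound or conjugate.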

A2058 [1] = experiment: 3H thymidine proliferation assay, A2058; settings: 3H thymidine method, 72 h incubation
Summary of the method: as §1

UO-31 [2] = experiment: 3H thymidine proliferation assay, UO-31
Summary of the method: as §1

H740 = experiment: 3H thymidine proliferation assay, H740
Summary of the method: as §1

DMS53 [3] = experiment: 3H thymidine proliferation assay, DMS53
Summary of the method: as §1

ZR-75 = experiment: 3H thymidine proliferation assay, ZR-75
Summary of the method: as §1

OVCAR3 [4] = experiment: 3H thymidine proliferation assay, OVCAR3
Summary of the method: as §1

CEM-C1 = experiment: 3H thymidine proliferation assay, CEM-C1
Summary of the method: as §1

Nomo-1 = experiment: 3H thymidine proliferation assay, Nomo-1
Summary of the method: as §1

RPMI-8226 = experiment: 3H thymidine proliferation assay, RPMI-8226
Summary of the method: as §1

Raji [5] = experiment: 3H thymidine proliferation assay, Raji
Summary of the method: as §1

Hep3B = experiment: ATP luminescence proliferation assay, Hep3B
Summary of the method: (§2)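 ATP luminescence read-out after 48, 72 or 96 h exposure to 1:3 serially diluted unconjugated compounds or conjugates; 1.0×10^3 cells/well plated 3 h before dosing. EC50 = 50% reduction of proliferation.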

A2058 [6] = experiment: ATP luminescence proliferation assay, A2058
Summary of the method: as §2

U-87 MG = experiment: ATP luminescence proliferation assay, U-87 MG
Summary of the method: as §2

PC3 = experiment: ATP luminescence proliferation assay, PC3
Summary of the method: as §2

UO-31 [7] = experiment: ATP luminescence proliferation assay, UO-31
Procedure: This example generally describes the procedures used to assay the antiproliferative activity of compounds of this invention or their conjugates. Human tumor cell lines were obtained from the American Type Culture Collection (ATCC), P.O. Box 1549, Manassas, Va. 20108, USA, and cultured according to instruction from the ATCC. Cells were seeded at 1.0×10^3 or 1.0×10^4 cells/well in 96-well plates for 3 h for ATP assays or ^3H thymidine assays, respectively. 1:3 serial dilutions of free (unconjugated) compounds or their conjugates were added to the wells. Plates were allowed to incubate for 24 to 72 h. The ^3H thymidine plates were pulsed with 1.0 μCi of ^3H-thymidine per well for the last 24 hours of the total incubation period, harvested, and read on a Top Count Scintillation Counter (Packard Instruments, Meriden, Conn.). ATP levels in the ATP plates were measured using the […]-GLO® Luminescent Cell Viability kit following the manufacturer's manual and read on a GLOMAX® 20/20 luminometer (both from Promega, Madison, Wis., USA). The EC50 values—the concentration at which an agent inhibits or reduces cell proliferation by 50% —were determined using PRISM™ software, version 4.0 (GraphPad Software, La Jolla, Calif., USA).
Using the ^3H thymidine or the ATP luminescence assay, or both, the activities of compounds of this invention were assayed against the following cancer cell lines: HCT-15 (colorectal cancer, multi-drug resistant (MDR)); Hep3B (liver cancer); LNCaP (prostate cancer, androgen receptor positive (AR^+)); MDA-MB-231 (breast cancer, estrogen receptor, progesterone receptor, and Her2 negative (triple negative)); A2058 (melanoma); U-87 MG (glioblastoma); NCI-H460 (NSCLC); A549 (NSCLC); HPAC (pancreatic cancer, primary); PC3 (prostate cancer, AR); BT474 (breast cancer, Her2 highly positive (Her2hi)); SKOV3 (ovarian cancer, Her2hi); 786-O (renal cancer); UO-31 (renal cancer, MDR); NCI-H740 (SCLC); DMS53 (SCLC); SK-BR3 (breast cancer, Her2hi); ZR-75 (breast cancer, estrogen receptor positive); OVCAR3 (ovarian cancer); HL-60 (APL); OVCAR8/Adr (ovarian cancer, MDR); CEM-Cl (ALL); Nomo-1 (AML); RPMI-8226 (MM)); Raji (lymphoma); SW-480 (colorectal cancer, metastatic); SW-620 (colorectal cancer); and H226 (lung cancer). (Not all compounds were assayed against all cell lines.)
Table 3 provides the data for the ATP luminescence proliferation assays, with an incubation period of 48, 72, or 96 h, as noted.

DMS53 [8] = experiment: ATP luminescence proliferation assay, DMS53
Summary of the method: as §2

SK-BR3 = experiment: ATP luminescence proliferation assay, SK-BR3
Summary of the method: as §2

OVCAR3 [9] = experiment: ATP luminescence proliferation assay, OVCAR3
Summary of the method: as §2

Raji [10] = experiment: ATP luminescence proliferation assay, Raji
Summary of the method: as §2

[11] = 3H thymidine method, 72 h incubation, read-out: EC50, HCT-15
[12] = 3H thymidine method, 72 h incubation, read-out: EC50, UO-31
[13] = 3H thymidine method, 72 h incubation, read-out: EC50, H740
[14] = 3H thymidine method, 72 h incubation, read-out: EC50, DMS53
[15] = 3H thymidine method, 72 h incubation, read-out: EC50, ZR-75
[16] = 3H thymidine method, 72 h incubation, read-out: EC50, OVCAR3
[17] = 3H thymidine method, 72 h incubation, read-out: EC50, CEM-C1
[18] = 3H thymidine method, 72 h incubation, read-out: EC50, Nomo-1
[19] = 3H thymidine method, 72 h incubation, read-out: EC50, RPMI-8226
[20] = 3H thymidine method, 72 h incubation, read-out: EC50, Raji
[21] = ATP luminescence, 48 h incubation, read-out: EC50 Hep3B (48 h)
[22] = ATP luminescence, A2058, 72 h incubation, read-out: EC50 A2058 (72 h)
[23] = ATP luminescence, 72 h incubation, read-out: EC50 U-87 MG (72 h)
[24] = ATP luminescence, PC3, 48 h incubation, read-out: EC50 PC3 (48 h)
[25] = ATP luminescence, UO-31, 48 h incubation, read-out: EC50 UO-31 (48 h)
[26] = ATP luminescence, SK-BR3, 48 h incubation, read-out: EC50 SK-BR3 (48 h)
[27] = ATP luminescence, OVCAR3, 48 h incubation, read-out: EC50 OVCAR3 (48 h)
[28] = ATP luminescence, 72 h incubation, read-out: EC50 Raji (72 h)
[29] = ATP luminescence, DMS53, 72 h incubation, read-out: EC50 DMS53 (72 h)

Compound: CC[C@H](C)[C@H](NC(=O)[C@H]1CCCCN1C)C(=O)N(COC(=O)CC(C)C)[C@H](C[C@@H](OC(C)=O)c1nc(C(=O)N[C@@H](Cc2ccccc2)C(=O)OC)cs1)C(C)C [Compound 29]
- pEC50 (HCT-15; [11]): 9.74
- pEC50 (A2058 [1]): 9.40
- pEC50 (UO-31 [2]; [12]): 9.89
- pEC50 (H740; [13]): 9.39
- pEC50 (DMS53 [3]; [14]): 9.55
- pEC50 (ZR-75; [15]): 8.42
- pEC50 (OVCAR3 [4]; [16]): 10.70
- pEC50 (CEM-C1; [17]): 10.72
- pEC50 (Nomo-1; [18]): 11.12
- pEC50 (RPMI-8226; [19]): 10.47
- pEC50 (Raji [5]; [20]): 10.62
- pEC50 (Hep3B; [21]): 8.80
- pEC50 (A2058 [6]; [22]): 8.54
- pEC50 (U-87 MG; [23]): 8.31
- pEC50 (PC3; [24]): 8.47
- pEC50 (UO-31 [7]; [25]): 8.57
- pEC50 (DMS53 [8]; ATP luminescence, DMS53, 48 h incubation, read-out: EC50 DMS53 (48 h)): 8.28
- pEC50 (SK-BR3; [26]): 8.44
- pEC50 (OVCAR3 [9]; [27]): < 7.00
- pEC50 (Raji [10]; [28]): 8.68

Compound: CC[C@H](C)[C@H](NC(=O)[C@H]1CCCCN1C)C(=O)N(COC(=O)CC(C)C)[C@H](C[C@@H](O)c1nc(C(=O)N[C@@H](Cc2ccccc2)C(=O)OC)cs1)C(C)C [Compound 28]
- pEC50 (HCT-15; [11]): 6.65
- pEC50 (A2058 [1]): 9.02
- pEC50 (UO-31 [2]; [12]): < 7.00
- pEC50 (H740; [13]): 8.24
- pEC50 (DMS53 [3]; [14]): < 7.00
- pEC50 (ZR-75; [15]): 8.37
- pEC50 (OVCAR3 [4]; [16]): 8.51
- pEC50 (CEM-C1; [17]): 8.00
- pEC50 (Nomo-1; [18]): 9.70
- pEC50 (RPMI-8226; [19]): 8.06
- pEC50 (Raji [5]; [20]): 7.89
- pEC50 (Hep3B; [21]): 7.77
- pEC50 (A2058 [6]; [22]): 7.70
- pEC50 (U-87 MG; [23]): 7.74
- pEC50 (PC3; [24]): 8.24
- pEC50 (UO-31 [7]; [25]): 8.24
- pEC50 (DMS53 [8]; [29]): 7.24
- pEC50 (SK-BR3; [26]): 8.11
- pEC50 (OVCAR3 [9]; [27]): 7.85
- pEC50 (Raji [10]; [28]): 7.82

Compound: CC[C@H](C)[C@H](NC(=O)[C@H]1CCCCN1C)C(=O)N(COC)[C@H](C[C@@H](OC)c1nc(C(=O)N[C@@H](Cc2ccccc2)C(=O)OC)cs1)C(C)C [Compound 29c]
- pEC50 (HCT-15; [11]): 8.62
- pEC50 (A2058 [1]): 8.25
- pEC50 (UO-31 [2]; [12]): 9.00
- pEC50 (H740; [13]): 8.28
- pEC50 (DMS53 [3]; [14]): 7.12
- pEC50 (ZR-75; [15]): 7.36
- pEC50 (OVCAR3 [4]; [16]): 8.44
- pEC50 (CEM-C1; [17]): 7.35
- pEC50 (Nomo-1; [18]): 9.37
- pEC50 (RPMI-8226; [19]): 7.80
- pEC50 (Raji [5]; [20]): 8.07
- pEC50 (Hep3B; [21]): 7.12
- pEC50 (A2058 [6]; ATP luminescence, A2058, 48 h incubation, read-out: EC50 A2058 (48 h)): 7.49
- pEC50 (U-87 MG; [23]): 6.87
- pEC50 (PC3; [24]): 7.18
- pEC50 (UO-31 [7]; [25]): 7.59
- pEC50 (DMS53 [8]; [29]): 7.77
- pEC50 (SK-BR3; [26]): 6.56
- pEC50 (OVCAR3 [9]; ATP luminescence, OVCAR3, 72 h incubation, read-out: EC50 OVCAR3 (72 h)): 7.00
- pEC50 (Raji [10]; [28]): 7.44

Compound: CC[C@H](C)[C@H](NC(=O)[C@H]1CCCCN1C)C(=O)N(C)[C@H](C[C@@H](OC)c1nc(C(=O)N[C@H](CCC(=O)OC)Cc2ccccc2)cs1)C(C)C [Compound 26]
- pEC50 (HCT-15; Homo sapiens, HCT-15, read-out: EC50, HCT-15, 3H thymidine method, 72 h incubation): 7.51
- pEC50 (A2058 [1]; Homo sapiens, A2058): 7.60
- pEC50 (UO-31 [2]; Homo sapiens, UO-31, read-out: EC50, UO-31, 3H thymidine method, 72 h incubation): 7.30
- pEC50 (H740; Homo sapiens, read-out: EC50, H740, 3H thymidine method, 72 h incubation): 8.52
- pEC50 (DMS53 [3]; Homo sapiens, DMS-53, read-out: EC50, DMS53, 3H thymidine method, 72 h incubation): 7.00
- pEC50 (ZR-75; Homo sapiens, ZR75, read-out: EC50, ZR-75, 3H thymidine method, 72 h incubation): < 6.52
- pEC50 (OVCAR3 [4]; Homo sapiens, OVCAR-3, read-out: EC50, OVCAR3, 3H thymidine method, 72 h incubation): 8.49
- pEC50 (CEM-C1; Homo sapiens, CEM/C1, read-out: EC50, CEM-C1, 3H thymidine method, 72 h incubation): 7.66
- pEC50 (Nomo-1; Homo sapiens, NOMO-1, read-out: EC50, Nomo-1, 3H thymidine method, 72 h incubation): 9.44
- pEC50 (RPMI-8226; Homo sapiens, RPMI-8226, read-out: EC50, RPMI-8226, 3H thymidine method, 72 h incubation): 8.11
- pEC50 (Raji [5]; Homo sapiens, Raji, read-out: EC50, Raji, 3H thymidine method, 72 h incubation): 8.15
- pEC50 (Hep3B; Homo sapiens, 48 h, read-out: EC50 Hep3B (48 h), ATP luminescence, Hep3B, 48 h incubation): 7.00
- pEC50 (A2058 [6]; Homo sapiens, A2058, 48 h, read-out: EC50 A2058 (48 h), ATP luminescence, A2058, 48 h incubation): 7.03
- pEC50 (U-87 MG; Homo sapiens, 72 h, read-out: EC50 U-87 MG (72 h), ATP luminescence, U-87 MG, 72 h incubation): 7.03
- pEC50 (PC3; Homo sapiens, PC-3, 48 h, read-out: EC50 PC3 (48 h), ATP luminescence, PC3, 48 h incubation): < 5.52
- pEC50 (UO-31 [7]; Homo sapiens, UO-31, 48 h, read-out: EC50 UO-31 (48 h), ATP luminescence, UO-31, 48 h incubation): 6.62
- pEC50 (DMS53 [8]; Homo sapiens, DMS-53, 72 h, read-out: EC50 DMS53 (72 h), ATP luminescence, DMS53, 72 h incubation): 6.71
- pEC50 (SK-BR3; Homo sapiens, SK-BR-3, 48 h, read-out: EC50 SK-BR3 (48 h), ATP luminescence, SK-BR3, 48 h incubation): 6.60
- pEC50 (OVCAR3 [9]; Homo sapiens, OVCAR-3, 72 h, read-out: EC50 OVCAR3 (72 h), ATP luminescence, OVCAR3, 72 h incubation): 7.31
- pEC50 (Raji [10]; Homo sapiens, 72 h, read-out: EC50 Raji (72 h), ATP luminescence, Raji, 72 h incubation): 7.34
